Laboratory results: PubChem BioAssay AID248 (DTP/NCI, 2004)
Toxic doses and inconclusive results are not listed. No stated cut-off is given here; in the data, active means T/C of 150% or more; inactive means T/C below 125%.

Test system: L1210 leukemia ip in BDF1 mice, survival T/C
Test: NCI In Vivo Anticancer Drug Screen. Data for tumor model L1210 Leukemia (intraperitoneal) in B6D2F1 (BDF1) mice
Details: endpoint: mean survival time, higher = longer survival
Method in brief: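 Transplantable tumor model; survival measured in treated vs vehicle control mice. Value = treated/control.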

[1] = dose: 100.0 mg/kg/injection, schedule: Q01DX001 (ip), vehicle: Klucel (hydroxypropylcellulose) (HPC)
[2] = dose: 100.0 mg/kg/injection, schedule: Q04DX003 (ip), vehicle: Klucel (hydroxypropylcellulose) (HPC)
[3] = dose: 200.0 mg/kg/injection, schedule: Q01DX001 (ip), vehicle: Klucel (hydroxypropylcellulose) (HPC)
[4] = dose: 200.0 mg/kg/injection, schedule: Q04DX003 (ip), vehicle: Klucel (hydroxypropylcellulose) (HPC)
[5] = dose: 400.0 mg/kg/injection, schedule: Q01DX001 (ip), vehicle: Klucel (hydroxypropylcellulose) (HPC)
[6] = dose: 100.0 mg/kg/injection, schedule: Q01DX001 (ip), vehicle: saline with Tween-80
[7] = dose: 200.0 mg/kg/injection, schedule: Q01DX001 (ip), vehicle: saline with Tween-80
[8] = dose: 400.0 mg/kg/injection, schedule: Q01DX001 (ip), vehicle: saline with Tween-80
[9] = dose: 100.0 mg/kg/injection, schedule: Q04DX003 (ip), vehicle: saline with Tween-80
[10] = dose: 200.0 mg/kg/injection, schedule: Q04DX003 (ip), vehicle: saline with Tween-80
[11] = dose: 400.0 mg/kg/injection, schedule: Q04DX003 (ip), vehicle: saline with Tween-80
[12] = dose: 100.0 mg/kg/injection, schedule: Q01DX009 (ip), vehicle: Klucel (hydroxypropylcellulose) (HPC)
[13] = dose: 200.0 mg/kg/injection, schedule: Q01DX009 (ip), vehicle: Klucel (hydroxypropylcellulose) (HPC)
[14] = dose: 400.0 mg/kg/injection, schedule: Q01DX009 (ip), vehicle: Klucel (hydroxypropylcellulose) (HPC)
[15] = dose: 100.0 mg/kg/injection, schedule: Q04DX002 (ip), vehicle: Klucel (hydroxypropylcellulose) (HPC)
[16] = dose: 200.0 mg/kg/injection, schedule: Q04DX002 (ip), vehicle: Klucel (hydroxypropylcellulose) (HPC)
[17] = dose: 400.0 mg/kg/injection, schedule: Q04DX002 (ip), vehicle: Klucel (hydroxypropylcellulose) (HPC)
[18] = dose: 100.0 mg/kg/injection, schedule: Q01DX001 (ip), vehicle: other
[19] = dose: 200.0 mg/kg/injection, schedule: Q01DX001 (ip), vehicle: saline
[20] = dose: 400.0 mg/kg/injection, schedule: Q01DX001 (ip), vehicle: saline

Measured: T/C

CC(=O)c1ccc(CC2CC3CCC2C3)cc1 (stereo not given)
inactive: [1] 112 % of control | [2] 94 % of control | [3] 96 % of control | [4] 89 % of control | [5] 89 % of control | dose: 400.0 mg/kg/injection, schedule: Q04DX003 (ip), vehicle: Klucel (hydroxypropylcellulose) (HPC) 98 % of control

COc1c2c(c3ccccc3c1OC(C)=O)OC(C)(C)CC2
inactive: [6] 88 % of control | [7] 92 % of control | [8] 90 % of control

CCCCCCCCCCCCCCCC[N+]1(CCCC)CCOCC1
inactive: [2] 86 % of control | [4] 101 % of control

O=C(CC(O)(C(F)(F)F)C(F)(F)F)C(Cl)C(O)(C(F)(F)F)C(F)(F)F (stereo not given)
inactive: dose: 25.0 mg/kg/injection, schedule: Q01DX001 (ip), vehicle: other 104 % of control | dose: 50.0 mg/kg/injection, schedule: Q01DX001 (ip), vehicle: other 86 % of control

C[N+](C)(N)Cc1ccc(C[N+](C)(C)N)cc1
inactive: dose: 100.0 mg/kg/injection, schedule: Q04DX002 (ip), vehicle: saline 108 % of control | dose: 200.0 mg/kg/injection, schedule: Q04DX002 (ip), vehicle: saline 97 % of control

S=C(Nc1ccccc1)N1CC1
inactive: [1] 96 % of control | [9] 91 % of control | [3] 98 % of control | [10] 92 % of control | [5] 94 % of control | [11] 90 % of control

Cc1ccccc1NC(=O)N(C)N
inactive: dose: 75.0 mg/kg/injection, schedule: Q01DX001 (ip), vehicle: carboxymethylcellulose (CMC) 93 % of control

CC1C=CC(C(=O)Nc2ccc(Cl)c(Cl)c2)N1C (stereo not given)
inactive: dose: 50.0 mg/kg/injection, schedule: Q01DX009 (ip), vehicle: saline with Tween-80 94 % of control | dose: 100.0 mg/kg/injection, schedule: Q01DX009 (ip), vehicle: saline with Tween-80 91 % of control | dose: 200.0 mg/kg/injection, schedule: Q01DX009 (ip), vehicle: saline with Tween-80 93 % of control

CCOC(=O)C/C(C(=O)O)=C(\C)c1ccc2ccccc2c1
inactive: [1] 101 % of control | [12] 95 % of control | [3] 95 % of control | [13] 100 % of control | [5] 95 % of control | [14] 86 % of control

CC(C)=NNC(=O)CNc1ccc(Cl)c(C(F)(F)F)c1
inactive: [15] 97 % of control | [16] 104 % of control | [17] 111 % of control

CCCCCCCCCCCCCC(CCCCCCCCCCCC)CCCCCCCCCCCC
inactive: [6] 92 % of control | [7] 87 % of control | [8] 87 % of control

COc1c2ccoc2c(OCC=C(C)C)c2oc(=O)ccc12
inactive: dose: 100.0 mg/kg/injection, schedule: Q01DX009 (ip), vehicle: other 98 % of control | dose: 100.0 mg/kg/injection, schedule: Q04DX003 (ip), vehicle: saline sonified 107 % of control | dose: 200.0 mg/kg/injection, schedule: Q01DX009 (ip), vehicle: other 111 % of control | dose: 200.0 mg/kg/injection, schedule: Q04DX003 (ip), vehicle: saline sonified 102 % of control | dose: 400.0 mg/kg/injection, schedule: Q01DX009 (ip), vehicle: other 95 % of control | dose: 400.0 mg/kg/injection, schedule: Q04DX003 (ip), vehicle: saline sonified 97 % of control

[CH3][Ga]([CH3])[O]c1ccccc1C=O
inactive: dose: 1.5 mg/kg/injection, schedule: Q01DX009 (ip), vehicle: DMSO 97 % of control | dose: 1.5 mg/kg/injection, schedule: Q04DX003 (ip), vehicle: DMSO 107 % of control | dose: 3.0 mg/kg/injection, schedule: Q01DX009 (ip), vehicle: DMSO 97 % of control | dose: 3.0 mg/kg/injection, schedule: Q04DX003 (ip), vehicle: DMSO 94 % of control | dose: 6.0 mg/kg/injection, schedule: Q01DX009 (ip), vehicle: DMSO 108 % of control | dose: 6.0 mg/kg/injection, schedule: Q04DX003 (ip), vehicle: DMSO 102 % of control

Cc1cc2c(c(Cl)n1)C(=O)OC2=O
inactive: dose: 75.0 mg/kg/injection, schedule: Q01DX001 (ip), vehicle: other 95 % of control | dose: 150.0 mg/kg/injection, schedule: Q01DX001 (ip), vehicle: other 95 % of control | dose: 300.0 mg/kg/injection, schedule: Q01DX001 (ip), vehicle: other 103 % of control

Cc1ccc(C)c(NC(=O)Nc2ncccn2)c1
inactive: [12] 102 % of control | [13] 92 % of control | [14] 97 % of control

CCOC(=O)c1cnc(SCc2ccccc2)nc1Nc1ccccc1Cl
inactive: [9] 94 % of control | [10] 88 % of control

CCN(CC)CCSC(CO)c1ccccc1 (stereo not given)
inactive: dose: 75.0 mg/kg/injection, schedule: Q04DX003 (ip), vehicle: Klucel (hydroxypropylcellulose) (HPC) 97 % of control | dose: 150.0 mg/kg/injection, schedule: Q04DX003 (ip), vehicle: Klucel (hydroxypropylcellulose) (HPC) 92 % of control

CN(C)C(=O)C1C2C=CC(C2)C1C(=O)N(C)C (stereo not given)
inactive: [9] 98 % of control | [10] 95 % of control | [11] 98 % of control

O=C1Cc2ccccc2CNN1
inactive: [18] 90 % of control | dose: 400.0 mg/kg/injection, schedule: Q01DX001 (ip), vehicle: other 102 % of control

O=C(O)CCSc1ccc2c(c1)CCCC2
inactive: dose: 100.0 mg/kg/injection, schedule: Q04DX003 (ip), vehicle: acetone 99 % of control | dose: 200.0 mg/kg/injection, schedule: Q04DX003 (ip), vehicle: acetone 100 % of control | dose: 400.0 mg/kg/injection, schedule: Q04DX003 (ip), vehicle: acetone 96 % of control

Nc1c(Cl)c(Cl)nc(C(=O)O)c1Cl
inactive: dose: 6.25 mg/kg/injection, schedule: Q01DX009 (ip), vehicle: Klucel (hydroxypropylcellulose) (HPC) 98 % of control | dose: 12.5 mg/kg/injection, schedule: Q01DX009 (ip), vehicle: Klucel (hydroxypropylcellulose) (HPC) 98 % of control | dose: 50.0 mg/kg/injection, schedule: Q01DX009 (ip), vehicle: Klucel (hydroxypropylcellulose) (HPC) 100 % of control | [12] 95 % of control | [13] 97 % of control

OC(c1nc2ccccc2[nH]1)C(O)C(O)C(O)c1nc2ccccc2[nH]1 (stereo not given)
inactive: dose: 100.0 mg/kg/injection, schedule: Q01DX001 (ip), vehicle: saline 105 % of control | [15] 100 % of control | [19] 96 % of control | [16] 87 % of control | [20] 86 % of control | [17] 97 % of control

OCCN1CCN(CCCN2c3ccccc3CCc3ccccc32)CC1
inactive: dose: 12.5 mg/kg/injection, schedule: Q04DX003 (ip), vehicle: saline 98 % of control | dose: 15.62 mg/kg/injection, schedule: Q04DX003 (ip), vehicle: saline 100 % of control | dose: 25.0 mg/kg/injection, schedule: Q04DX003 (ip), vehicle: saline 106 % of control | dose: 31.25 mg/kg/injection, schedule: Q04DX003 (ip), vehicle: saline 103 % of control | dose: 50.0 mg/kg/injection, schedule: Q04DX003 (ip), vehicle: saline 104 % of control | dose: 62.5 mg/kg/injection, schedule: Q04DX003 (ip), vehicle: saline 105 % of control | dose: 100.0 mg/kg/injection, schedule: Q04DX003 (ip), vehicle: saline 104 % of control | dose: 125.0 mg/kg/injection, schedule: Q04DX003 (ip), vehicle: saline 92 % of control

Cc1ccccc1N=Cc1ccccc1O.[Co]
inactive: [18] 102 % of control | dose: 200.0 mg/kg/injection, schedule: Q01DX001 (ip), vehicle: other 98 % of control

O=C(OC1CCC/C=C\CCCC1)c1ccc(Cl)cc1 (stereo not given)
inactive: [19] 104 % of control | [20] 98 % of control
